Measurements: ChEMBL document CHEMBL1201862, “PubChem BioAssay data set” (2004)
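Cells were grown in 96-well plates and exposed to each compound for 48 hours at five concentrations; endpoints were interpolated linearly between bracketing concentrations, or set to the highest concentration if not reached. Here, GI50 denotes the concentration required for 50% inhibition of growth.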 Active and inactive are the calls of the source. Rule as the data show it: active = GI50 up to about 1.1 µM and inactive = higher.

Experiments:
Test in all cases: NCI-60 cell line screen, 48 h
M19-MEL = test system: M19-MEL
LXFL 529 = test system: LXFL 529
HL-60 = test system: HL-60
CAKI-1 = test system: CAKI-1
A498 = test system: A498
HCT-116 = test system: HCT-116
DMS-114 = test system: DMS-114
SK-OV-3 = test system: SK-OV-3
SK-MEL-28 = test system: SK-MEL-28
SF-539 = test system: SF-539
SW-620 = test system: SW-620
KM-20L2 = test system: KM-20L2
DMS-273 = test system: DMS-273
ACHN = test system: ACHN
SNB-78 = test system: SNB-78
OVCAR-5 = test system: OVCAR-5
HOP-92 = test system: HOP-92
TK-10 = test system: TK-10
RXF 631 = test system: RXF 631
OVCAR-3 = test system: OVCAR-3
786-0 = test system: 786-0
U-251 = test system: U-251
A549 = test system: A549
SK-MEL-5 = test system: SK-MEL-5
EKVX = test system: EKVX
IGROV-1 = test system: IGROV-1
SK-MEL-2 = test system: SK-MEL-2
SR = test system: SR
OVCAR-8 = test system: OVCAR-8
RXF 393 = test system: RXF 393
SF-295 = test system: SF-295
UACC-257 = test system: UACC-257
SN12C = test system: SN12C
NCI-H522 = test system: NCI-H522
NCI-H460 = test system: NCI-H460
SNB-75 = test system: SNB-75
HOP-62 = test system: HOP-62
HCT-15 = test system: HCT-15
NCI-H226 = test system: NCI-H226
CCRF-CEM = test system: CCRF-CEM
K562 = test system: K562
UACC-62 = test system: UACC-62
HT-29 = test system: HT-29
KM12 = test system: KM12
UO-31 = test system: UO-31
DLD-1 = test system: DLD-1
SF-268 = test system: SF-268
Malme-3M = test system: Malme-3M
M14 = test system: M14
OVCAR-4 = test system: OVCAR-4
HOP-18 = test system: HOP-18
RPMI-8226 = test system: RPMI-8226
XF498 = test system: XF498
LOX IMVI = test system: LOX IMVI
COLO 205 = test system: COLO 205
SNB-19 = test system: SNB-19
MOLT-4 = test system: MOLT-4
HCC 2998 = test system: HCC 2998
NCI-H23 = test system: NCI-H23

Nc1nc2c(c(=O)[n-]1)[n+](CCO)cn2C1OC(CO)C(O)C1O (configuration not stated)
GI50 (M19-MEL): > 100 µM (inactive) | GI50 (LXFL 529): > 100 µM (inactive) | GI50 (HL-60): > 100 µM (inactive) | GI50 (CAKI-1): > 100 µM (inactive) | GI50 (A498): > 100 µM (inactive) | GI50 (HCT-116): > 100 µM (inactive) | GI50 (DMS-114): > 100 µM (inactive) | GI50 (SK-OV-3): > 100 µM (inactive) | GI50 (SK-MEL-28): > 100 µM (inactive) | GI50 (SF-539): > 100 µM (inactive) | GI50 (SW-620): > 100 µM (inactive) | GI50 (KM-20L2): > 100 µM (inactive) | GI50 (DMS-273): > 100 µM (inactive) | GI50 (ACHN): > 100 µM (inactive) | GI50 (SNB-78): > 100 µM (inactive) | GI50 (OVCAR-5): > 100 µM (inactive) | GI50 (HOP-92): > 100 µM (inactive) | GI50 (TK-10): > 100 µM (inactive) | GI50 (RXF 631): > 100 µM (inactive) | GI50 (OVCAR-3): > 100 µM (inactive) | GI50 (786-0): > 100 µM (inactive) | GI50 (U-251): > 100 µM (inactive) | GI50 (A549): > 100 µM (inactive) | GI50 (SK-MEL-5): > 100 µM (inactive) | GI50 (EKVX): > 100 µM (inactive) | GI50 (IGROV-1): > 100 µM (inactive) | GI50 (SK-MEL-2): > 100 µM (inactive) | GI50 (SR): > 100 µM (inactive) | GI50 (OVCAR-8): > 100 µM (inactive) | GI50 (RXF 393): > 100 µM (inactive) | GI50 (SF-295): > 100 µM (inactive) | GI50 (UACC-257): > 100 µM (inactive) | GI50 (SN12C): > 100 µM (inactive) | GI50 (NCI-H522): > 100 µM (inactive) | GI50 (NCI-H460): > 100 µM (inactive) | GI50 (SNB-75): > 100 µM (inactive) | GI50 (HOP-62): > 100 µM (inactive) | GI50 (HCT-15): > 100 µM | GI50 (NCI-H226): > 100 µM (inactive) | GI50 (CCRF-CEM): > 100 µM (inactive) | GI50 (K562): > 100 µM (inactive) | GI50 (UACC-62): > 100 µM (inactive) | GI50 (HT-29): > 100 µM (inactive) | GI50 (KM12): > 100 µM (inactive) | GI50 (UO-31): > 100 µM (inactive) | GI50 (DLD-1): > 100 µM (inactive) | GI50 (SF-268): > 100 µM (inactive) | GI50 (Malme-3M): > 100 µM (inactive) | GI50 (M14): > 100 µM (inactive) | GI50 (OVCAR-4): > 100 µM (inactive) | GI50 (HOP-18): > 100 µM (inactive) | GI50 (RPMI-8226): > 100 µM (inactive) | GI50 (XF498): > 100 µM (inactive) | GI50 (LOX IMVI): > 100 µM (inactive) | GI50 (COLO 205): > 100 µM (inactive)

COC(=O)[C@@H]1C(=O)O[C@@H](c2cc(OC)c(OC)cc2OC)[C@@H]1C(=O)OC.COC(=O)[C@H]1C(=O)O[C@@H](c2cc(OC)c(OC)cc2OC)[C@@H]1C(=O)OC
GI50 (M19-MEL): > 100 µM (inactive) | GI50 (LXFL 529): > 100 µM (inactive) | GI50 (HL-60): > 100 µM (inactive) | GI50 (CAKI-1): > 100 µM (inactive) | GI50 (A498): > 100 µM (inactive) | GI50 (HCT-116): > 100 µM (inactive) | GI50 (DMS-114): > 100 µM (inactive) | GI50 (SK-OV-3): > 100 µM (inactive) | GI50 (SNB-19): > 100 µM (inactive) | GI50 (SK-MEL-28): > 100 µM (inactive) | GI50 (SF-539): > 100 µM (inactive) | GI50 (SW-620): > 100 µM (inactive) | GI50 (KM-20L2): > 100 µM (inactive) | GI50 (DMS-273): > 100 µM (inactive) | GI50 (ACHN): > 100 µM (inactive) | GI50 (SNB-78): > 100 µM (inactive) | GI50 (OVCAR-5): > 100 µM (inactive) | GI50 (HOP-92): > 100 µM (inactive) | GI50 (TK-10): > 100 µM (inactive) | GI50 (RXF 631): > 100 µM (inactive) | GI50 (OVCAR-3): > 100 µM (inactive) | GI50 (786-0): > 100 µM (inactive) | GI50 (U-251): > 100 µM (inactive) | GI50 (A549): > 100 µM (inactive) | GI50 (SK-MEL-5): > 100 µM (inactive) | GI50 (EKVX): > 100 µM (inactive) | GI50 (IGROV-1): > 100 µM (inactive) | GI50 (SR): > 100 µM (inactive) | GI50 (OVCAR-8): > 100 µM (inactive) | GI50 (MOLT-4): > 100 µM (inactive) | GI50 (RXF 393): > 100 µM (inactive) | GI50 (SF-295): > 100 µM (inactive) | GI50 (UACC-257): > 100 µM (inactive) | GI50 (SN12C): > 100 µM (inactive) | GI50 (HCC 2998): > 100 µM (inactive) | GI50 (NCI-H522): > 100 µM (inactive) | GI50 (NCI-H460): > 100 µM (inactive) | GI50 (SNB-75): > 100 µM (inactive) | GI50 (HOP-62): > 100 µM (inactive) | GI50 (HCT-15): > 100 µM | GI50 (NCI-H226): > 100 µM (inactive) | GI50 (CCRF-CEM): > 100 µM (inactive) | GI50 (K562): > 100 µM (inactive) | GI50 (UACC-62): > 100 µM (inactive) | GI50 (HT-29): > 100 µM (inactive) | GI50 (KM12): > 100 µM (inactive) | GI50 (UO-31): > 100 µM (inactive) | GI50 (DLD-1): > 100 µM (inactive) | GI50 (SF-268): > 100 µM (inactive) | GI50 (Malme-3M): > 100 µM (inactive) | GI50 (M14): > 100 µM (inactive) | GI50 (OVCAR-4): > 100 µM (inactive) | GI50 (RPMI-8226): > 100 µM (inactive) | GI50 (XF498): > 100 µM (inactive) | GI50 (NCI-H23): > 100 µM (inactive) | GI50 (LOX IMVI): > 100 µM (inactive) | GI50 (COLO 205): > 100 µM (inactive)
